Key:
CDNR4 cells [1] = format: cell-based, murine
Protocol: Following the cessation of the calibrated stress conditions exposure, the SR assay raw data is collected in the form of positive and negative wells (or cell growth sites) and in the form of viable or dead cell clones. The next steps of the assay involve expanding viable clones and determining their phenotypes. When the phenotype of interest being investigated in the SR assay is cell survival, the clones can be sub-classified using the testing listed in Table 6. This testing is performed as follows. Clones are removed from the tissue culture vessels in which they were placed before the start of the calibrated stress conditions exposure (using methods appropriate for the cell type), and subdivided into 4 different aliquots. Each aliquot is re-plated in an appropriate tissue culture vessel in medium containing the following. For one aliquot, the medium is growth medium (conditioned medium may be used) only; for a second aliquot the medium is supplemented with guanosine or folic acid at a concentration sufficient to enhance the survival and expansion of HPRT^− clones; for a third aliquot, the medium contains the same level of agent as used for the calibrated stress condition exposure, and the fourth aliquot is placed in HAT-medium containing an amount of aminopterin that is sufficient to induce growth arrest and/or cell death in Phen-HPRT^− cells of the cell type of interest (see above). Cell morphology (where informative for cell behavior and/or gene expression) and cell growth are monitored over the next 2, to 4 days to determine the response of the cells to these differing conditions. Cell clones can be subjected to additional testing as desired to evaluate further endpoints of interest and/or can be cryopreserved for future evaluations.
To subgroup Phen-ah clones as Phen-alt-rev or Phen-alt-irr, a representative group of these clones is tested further by subjecting the clones to repeated rounds of exposure to the calibrated stress conditions. Other stress inducing agents also may be used. Each exposure cycle is followed by a period of time to allow the cells to recover, and thus, to resolve the stress environment. After each exposure round, the percentage of cells that are resistant to the stress inducing agent or condition is recorded. […] The parental cell response that has been used in the examples below is defined as greater than 99% sensitivity to the calibrated stress conditions agent or condition, as evidenced by cell cycle arrest and/or cell death following exposure to the SR induction agent. Other stress response endpoints may be used and will depend upon the nature of the stress inducing agent used; these endpoints are incorporated herein.
The murine mammary epithelial cells designated CDNR4 were grown in their preferred growth medium (42% DMEM, 42% Hams F-12, 12% FBS, 1% 100×L-glutamine, 1% pen-strep, 0.5% to 1% bovine pituitary extract) until approximately 6 million cells were available. Cells were removed from the expansion flasks, counted, and replated at a rate of 500,000 cells per […] flask in growth medium. The flasks were assigned randomly to one of two groups: a vehicle-alone exposure (control group); an ENU-exposure (treated) group. […] For group 1 flasks, a volume of growth medium equal to the volume of ENU was added to the flasks. The cells were exposed to this solution for 1 hour at 37° C.; at the end of this time the solution was removed, the cells were washed with PBS at 37° C., and the cells were re-fed with fresh growth medium.
At the end of 2 weeks, the cells were removed from the flasks with trypsin/EDTA and passed through a 20 to 25 micron pore size sterile Nytran filter. The cell suspension was evaluated by light microscopy for evidence of large clumps, and was re-filtered if necessary using a new sterile Nytran filter of the same size to remove any apparent large clumps of cells. […]

CDNR4 cells [2] = assay: Determination of the SRID-50% level of 6-TG (calibrated stress conditions); format: cell-based, murine
Protocol: The calibrated stress conditions and the SRID-x % level are determined ideally using parental, control, or vehicle-exposed cells. This portion of the assay requires that several variables, including cell plating density, calibrated stress conditions level, and duration of stress conditions exposure be optimized simultaneously. These variables are interdependent such that each affects the outcome of the other, thereby making this portion of the assay one of the most critical. To achieve high sensitivity for detection of assay endpoints, it is important that the maximum number of cells be evaluated; however, optimal calibrated stress conditions are achieved at relatively low cell plating densities. In addition, cell plating densities and the SKID-x % level of stress inducing agent chosen for use in the assay must be such that fewer than one positive endpoint per well occurs in the assay. Using cell survival as an example, if multiple surviving cell clones are identified in the same well(s) during an experiment, then the cell plating density must be reduced and/or the SRID-x % level must be increased so that the frequency of occurrence of surviving clones is reduced to less than one per well. Thus, optimization of these variables is necessary.
Pilot studies that evaluate a range of cell plating densities and a range of calibrated stress conditions levels for the stress inducing agent of choice are used and are applied to untreated, control or parental cells. It is advisable to use a low plating density that results in rapid expression of stress resolution pathways (within 3 to 4 days where possible), or as quickly as possible after calibrated stress conditions exposure. In spite of potentially significant differences between cells of different types from different tissues and from different species, preliminary results from the SR assay support the conclusion that the optimal plating density for many cell types falls within a predictable range. […] These values can serve as starting points for empirical determination of the optimal cell plating density for the cells of interest to be used in the assay.
After estimating the optimal cell plating density, dose response curves are generated for the calibrated stress conditions agent of interest. For experiments in which cell survival is the phenotype of interest, work with the assay completed to date supports the conclusion that calibrated stress conditions levels that reduce expression of pro-survival pathways to a level that results in survival of one or fewer clones in 50% of the wells of a 96 well plate (defined as the SRID-50%) is the optimal level for assessment of damage avoidance pro-survival pathways. Use of these levels also results in a sufficiently robust expression of damage tolerance paths to make it possible to evaluate differences or changes in expression of these pathways between cell types and/or between differing exogenous exposures. Because cell plating density and level of calibrated stress inducing agent are inter-dependent, it may be necessary to perform several pilot studies using differing cell plating densities and a range of stress-response inducing levels to find the optimal combination of use with the cell type of interest in the assay.
There are two limits associated with Poisson distribution principles that must be considered in selecting the SRID-x % level of stress inducing agent. First, stress induction levels that result in a response frequency, for the response type of interest, that is near or equal to 100% of the sites being evaluated should be avoided and the same considerations are true for stress induction levels resulting in responses frequencies near or equal to 0%. The SR assay cannot accurately quantify response frequencies near 100% or near 0%, and this limitation forms the one of the factors affecting the selection of the SRID-x % level. […]

[3] = test system: immortalized human bronchial epithelial cell line #1; assay: Determination of the SRID-10% dose of 6-TG, cell line #1; format: cell-based; conditions: 600 to 1000 cells per well, 96 well plates
Protocol: (§1) Two immortalized, human bronchial epithelial cells lines were expanded in their preferred growth medium and plated at the rate of 600 to 1000 cells per well in tissue culture wells of 96 well plates. Both cell lines were immortalized using hTERT technology. The cells were exposed to variable 6-TG concentrations that ranged up to 150 micrograms/ml 6-TG. For cell line #1; the SRID-10% dose of 6-TG was determined to be 110 micrograms/ml; for cell line #2 the SRID-10% dose of 6-TG was determined to be 60 micrograms/ml 6-TG. The mCE of cell line #1 was 41%; for cell line #2 it was 25%. Thus, the total pro-survival pathway functionality for cell line #1 was […] (0.41×110 microgms/ml 6-TG); for cell line #2 this value was calculated to be 15.

[4] = test system: immortalized human bronchial epithelial cell line #2; assay: Determination of the SRID-10% dose of 6-TG, cell line #2; format: cell-based; conditions: 600 to 1000 cells per well, 96 well plates
Protocol: as §1

## CN(N=O)C(N)=O [MNU, methylnitrosourea]
CDNR4 cells [1]; compared with the ENU experiments
  SR assay results with MNU as pre-exposure agent in place of ENU: similar

## Nc1nc2nc[nH]c2c(=S)[nH]1 [6-TG, 6-thioguanine]
CDNR4 cells [1]; 6TG 30 micrograms/ml, one to 3 days after start, 600 cells per well
  death of the cells during SR induction phase: greater than 90%
CDNR4 cells [1]; two to 3 days after 4 days of 6TG 30 micrograms/ml, all plates
  cell death after the end of SR induction phase: ~100%
CDNR4 cells [2]; 6TG 1 to 100 micrograms/ml
  time to cell cycle arrest of all cells after start of 6-TG exposure: ≤ 24 h
CDNR4 cells [2]; CDNR4 cells, low plating density, 6-TG for four days
  SRID-50% (1 viable clone in approximately 50% of wells of a 96-well plate): 35 µg/mL
CDNR4 cells [2]; vehicle-exposed/parental CDNR4 cells, 500-600 cells per well of 96 well plate, 6-TG for four days
  SRID-50%: 35 micrograms/ml
[3]
  SRID-10% dose of 6-TG: 110 micrograms/ml
[4]
  SRID-10% dose of 6-TG: 60 micrograms/ml 6-TG
